Measured values taken from the NIST ThermoML archive (doi:10.1021/je400486p).

Test: refractive index (Na D-line) (dimensionless); xn = mol fraction of the nth substance listed
Settings: 101.3 kPa, Liquid, Standard Abbe refractometry

CN1CCCC1=O [N-methylpyrrolidone] + CCC(C)O
refractive index
Settings	x2 = 0	x2 = 0.1049	x2 = 0.2001	x2 = 0.3009	x2 = 0.4019	x2 = 0.5003	x2 = 0.5995	x2 = 0.7004	x2 = 0.7985	x2 = 0.899
288.15 K	1.47166	1.46489	1.45851	1.45151	1.44431	1.43715	1.42982	1.42227	1.41487	1.40724
293.15 K	1.46952	1.46273	1.45634	1.44937	1.44219	1.43504	1.42772	1.42016	1.41275	1.40512
298.15 K	1.46736	1.46061	1.45418	1.4473	1.44013	1.43298	1.42564	1.41806	1.41063	1.40302
303.15 K	1.4652	1.45844	1.45203	1.44515	1.43799	1.43083	1.42349	1.41587	1.40842	1.40081
308.15 K	1.46306	1.45632	1.44987	1.44301	1.43583	1.42867	1.42131	1.41372	1.40626	1.39861
313.15 K	1.46095	1.45416	1.44773	1.44083	1.43366	1.42651	1.41919	1.41155	1.40406	1.39638
318.15 K	1.45891	1.45204	1.44559	1.43868	1.43152	1.42436	1.41701	1.40934	1.40181	1.39408
323.15 K	1.4568	1.44996	1.4435	1.43654	1.42934	1.42215	1.41481	1.40711	1.39955	1.39172

COCCOCCOCCOCCOC [2,5,8,11,14-pentaoxapentadecane] + CCC(C)O
refractive index
Settings	x2 = 0	x2 = 0.1007	x2 = 0.2003	x2 = 0.3015	x2 = 0.3991	x2 = 0.5011	x2 = 0.6024	x2 = 0.6997	x2 = 0.7998	x2 = 0.9004
288.15 K	1.4345	1.43266	1.43063	1.42851	1.42627	1.42333	1.41994	1.41632	1.41171	1.40624
293.15 K	1.43238	1.43054	1.42851	1.42637	1.42412	1.42118	1.41778	1.41418	1.4096	1.40412
298.15 K	1.43027	1.42843	1.42637	1.42424	1.42197	1.41902	1.41562	1.41202	1.40743	1.40197
303.15 K	1.42815	1.42631	1.42424	1.4221	1.41983	1.41687	1.41347	1.40983	1.40522	1.39977
308.15 K	1.42603	1.4242	1.42212	1.41998	1.41768	1.41473	1.41133	1.40765	1.40302	1.39751
313.15 K	1.42394	1.42209	1.42001	1.41785	1.4155	1.41255	1.40915	1.40543	1.40077	1.39524
318.15 K	1.42183	1.42003	1.4179	1.41571	1.41339	1.41039	1.40698	1.40327	1.39857	1.393
323.15 K	1.41973	1.41794	1.4158	1.4136	1.41127	1.40823	1.40477	1.40104	1.39628	1.39067
